Measured values taken from patent US20070270484A1, “3'-N-Substituted-3-O-Substituted Erythronolide a Derivatives” (priority 2003, published 2007).
Converted amounts (≈) assume the structure as drawn.

Assays:
S. pneum 1256 (erm) = experiment: microbe, parasite or virus in culture; assay type: cell-based, streptococcus pneumoniae; details: for Minimum Inhibitory Concentrations, S. pneum 1256 (erm): agar dilution, 18-24 hours, 35±2° C., 5% CO2, erm: ribosomal modification (mutation) erm genes
Protocol: (§1) Drug dilutions and the agar plates are prepared by NCCLS method. Inoculum is prepared by direct colony suspensions in normal saline and adjusted to 0.5 McFarland turbidity and subsequently diluted as per NCCLS guidelines in order to obtain 10^4 CFU/spot. CFU/ml of a few randomly selected cultures is performed. The cultures are replicated on the agar plates using replicator (Denley's multipoint). The plates are incubated at 35±2° C. and in 5% CO2 atmosphere (for respiratory and Haemophilus strains) for 18-24 hours at 35±2° C. Minimum inhibitory concentrations (MIC) are determined after 18-24 hours. Q. C. strains are also included in each run of the study. The cation content of Mueller Hinton agar is checked by performing disk […] of 10 μg gentamicin disk against Pseudomonas aeroginosa ATCC 27853. The zone of inhibition should fall between 16-21 mm. The concentration of drug at which there is complete disappearance of growth spot or formation of less than 10 colonies per spot is considered as MIC.

S. pneum 1275 (erm) = experiment: microbe, parasite or virus in culture; assay type: cell-based, streptococcus pneumoniae; details: for Minimum Inhibitory Concentrations, S. pneum 1275 (erm): agar dilution, 18-24 hours, 35±2° C., 5% CO2, erm: ribosomal modification (mutation) erm genes; for MIC: Streptococcus pneumoniae, read-out: Minimum Inhibitory Concentrations, S. pneum 1275 (erm)
Protocol: as §1

S. pneum 1294 (mef) = experiment: microbe, parasite or virus in culture; assay type: cell-based, streptococcus pneumoniae; details: for Minimum Inhibitory Concentrations, S. pneum 1294 (mef): agar dilution, 18-24 hours, 35±2° C., 5% CO2, mef: efflux pump mef genes
Protocol: as §1

S. pneum AB 14 (erm) = experiment: microbe, parasite or virus in culture; assay type: cell-based, streptococcus pneumoniae; details: for Minimum Inhibitory Concentrations, S. pneum AB 14 (erm): agar dilution, 18-24 hours, 35±2° C., 5% CO2, erm: ribosomal modification (mutation) erm genes
Protocol: as §1

S. pneum AB 29 (erm) = experiment: microbe, parasite or virus in culture; assay type: cell-based, streptococcus pneumoniae; details: for Minimum Inhibitory Concentrations, S. pneum AB 29 (erm): agar dilution, 18-24 hours, 35±2° C., 5% CO2, erm: ribosomal modification (mutation) erm genes; for MIC: Streptococcus pneumoniae, read-out: Minimum Inhibitory Concentrations, S. pneum AB 29 (erm)
Protocol: as §1

S. pneum AB 30 (erm) = experiment: microbe, parasite or virus in culture; assay type: cell-based, streptococcus pneumoniae; details: for Minimum Inhibitory Concentrations, S. pneum AB 30 (erm): agar dilution, 18-24 hours, 35±2° C., 5% CO2, erm: ribosomal modification (mutation) erm genes; for MIC: Streptococcus pneumoniae, read-out: Minimum Inhibitory Concentrations, S. pneum AB 30 (erm)
Protocol: as §1

S. pneum 1251 (mef) = experiment: MIC, agar incorporation method (NCCLS agar dilution method); assay type: cell-based, streptococcus pneumoniae; details: 18-24 hours, 35±2° C., 5% CO2, mef: efflux pump mef genes; for MIC: Streptococcus pneumoniae, read-out: Minimum Inhibitory Concentrations, S. pneum 1251 (mef)
Protocol: as §1

S. pneum AB 34 (mef) = experiment: as above; assay type: cell-based, streptococcus pneumoniae; details: 18-24 hours, 35±2° C., 5% CO2, mef: efflux pump mef genes; for MIC: Streptococcus pneumoniae, read-out: Minimum Inhibitory Concentrations, S. pneum AB 34 (mef)
Protocol: as §1

S. pneum ATCC 49619 = experiment: as above; assay type: cell-based, streptococcus pneumoniae; details: 35±2° C.; for Minimum Inhibitory Concentrations, S. pneum ATCC 49619: 18-24 hours, 5% CO2; for MIC: Streptococcus pneumoniae, ATCC49619, 18-24 hours, 5% CO2, read-out: Minimum Inhibitory Concentrations, S. pneum ATCC 49619
Protocol: as §1

S. pneum ATCC 6303 = experiment: as above; assay type: cell-based, streptococcus pneumoniae; details: 35±2° C.; for Minimum Inhibitory Concentrations, S. pneum ATCC 6303: 18-24 hours, 5% CO2; for MIC: Streptococcus pneumoniae, ATCC6303, 18-24 hours, 5% CO2, read-out: Minimum Inhibitory Concentrations, S. pneum ATCC 6303
Protocol: as §1

S. pneum CS 1687 (mef) = experiment: as above; assay type: cell-based, streptococcus pneumoniae; details: 18-24 hours, 35±2° C., 5% CO2, mef: efflux pump mef genes; for MIC: Streptococcus pneumoniae, read-out: Minimum Inhibitory Concentrations, S. pneum CS 1687 (mef)
Protocol: as §1

MoraXella MI = experiment: as above; assay type: cell-based; details: 18-24 hours, 35±2° C.; for MIC: Moraxella, read-out: Minimum Inhibitory Concentrations, MoraXella MI
Protocol: as §1

H. inflenza ATCC 49247 = experiment: as above; assay type: cell-based, Haemophilus influenzae; details: for Minimum Inhibitory Concentrations, H. inflenza ATCC 49247: agar dilution, 18-24 hours, 35±2° C., 5% CO2; for MIC: Haemophilus influenzae, ATCC49247, read-out: Minimum Inhibitory Concentrations, H. inflenza ATCC 49247
Protocol: Minimum inhibitory concentrations (μg/ml) were obtained for representative compounds of the invention, which are given in Table 2.
as §1

Compound | Minimum Inhibitory Concentrations, S. pneum 1256 (erm) (S. pneum 1256 (erm)) [µg/mL] | Minimum Inhibitory Concentrations, S. pneum 1275 (erm) (S. pneum 1275 (erm)) [µg/mL] | Minimum Inhibitory Concentrations, S. pneum 1294 (mef) (S. pneum 1294 (mef)) [µg/mL] | Minimum Inhibitory Concentrations, S. pneum AB 14 (erm) (S. pneum AB 14 (erm)) [µg/mL] | Minimum Inhibitory Concentrations, S. pneum AB 29 (erm) (S. pneum AB 29 (erm)) [µg/mL] | Minimum Inhibitory Concentrations, S. pneum AB 30 (erm) (S. pneum AB 30 (erm)) [µg/mL] | Minimum Inhibitory Concentrations, S. pneum 1251 (mef) (S. pneum 1251 (mef)) [µg/mL] | Minimum Inhibitory Concentrations, S. pneum AB 34 (mef) (S. pneum AB 34 (mef)) [µg/mL] | Minimum Inhibitory Concentrations, S. pneum ATCC 49619 (S. pneum ATCC 49619) [µg/mL] | Minimum Inhibitory Concentrations, S. pneum ATCC 6303 (S. pneum ATCC 6303) [µg/mL] | Minimum Inhibitory Concentrations, S. pneum CS 1687 (mef) (S. pneum CS 1687 (mef)) [µg/mL] | Minimum Inhibitory Concentrations, MoraXella MI (MoraXella MI) [µg/mL] | Minimum Inhibitory Concentrations, H. inflenza ATCC 49247 (H. inflenza ATCC 49247) [µg/mL] | also measured
3-O-(2-Pyridyl)acetyl-5-O-(3′-N-desmethyl-3′-N-cyclopropylmethyl)desosaminyl-6-O-methyl erythronolide A [Compound No. 50] | >16 | >16 | 2 | >16 | 0.5 | >16 | 0.5 | >16 | 0.5 | 0.5 | 1 | 2 | >16 | –
3-O-(2-Fluorophenyl)acetyl-5-O-(3′-N-desmethyl-3′-N-allyl)desosaminyl-6-O-methyl erythronolide A [Compound No. 23] | >16 | >16 | 2 | >16 | 1 | >16 | 2 | >16 | 2 | 2 | 2 | 16 | >16 | –
3-O-(4-Nitrophenyl)acetyl-5-O-(3′-N-desmethyl-3′-N-ethyl)desoaminyl-6-O-methyl erythronolide A [Compound No. 30] | >16 | >16 | 2 | >16 | <0.5 | >16 | 1 | >16 | 1 | 1 | 1 | 4 | >16 | –
C#CCN(C)C1CC(C)OC(OC2C(C)C(OC(=O)Cc3ccc(F)cc3)C(C)C(=O)OC(CC)C(C)(O)C(O)C(C)C(=O)C(C)CC2(C)OC)C1O (centres unmarked) [Compound No. 18, 3-O-(4-Fluorophenyl)acetyl-5-O-(3′-N-desmethyl-3′-N-propargyl)desosaminyl-6-O-methyl erythronolide A] | >16 | >16 | 1 | 16 | 1 | >16 | 1 | 1 | 1 | 1 | 1 | 16 | >16 | –
3-O-(2-Fluorophenyl)acetyl-5-O-(3′-N-desmethyl-3′-N-propargyl)desosaminyl-6-O-methyl erythronolide A [Compound No. 21] | >16 | >16 | 2 | >16 | >16 | >16 | 0.25 | >16 | >16 | 0.5 | 0.5 | 0.25 | >16 | –
CC[C@H]1OC(=O)[C@H](C)C(=O)[C@H](C)[C@@H](O[C@@H]2O[C@H](C)C[C@H](N(C)C)[C@H]2O)[C@](C)(OC)C[C@@H](C)C(=O)[C@H](C)[C@H]2N(CCCCn3cnc(-c4cccnc4)c3)C(=O)O[C@]12C [T, Telithromycin, reference compound] | – | – | – | – | – | – | – | – | – | – | – | – | – | MIC (S. pneum 1275 (erm)): 0.008 µg/mL (≈ 0.00985 µM); MIC (S. pneum AB 29 (erm)): 0.25 µg/mL (≈ 0.308 µM); MIC (S. pneum AB 30 (erm)): 0.25 µg/mL (≈ 0.308 µM); MIC (S. pneum 1251 (mef)): 0.5 µg/mL (≈ 0.616 µM); MIC (S. pneum AB 34 (mef)): 0.125 µg/mL (≈ 0.154 µM); MIC (S. pneum ATCC 49619): 0.008 µg/mL (≈ 0.00985 µM); MIC (S. pneum ATCC 6303): 0.015 µg/mL (≈ 0.0185 µM); MIC (S. pneum CS 1687 (mef)): 0.125 µg/mL (≈ 0.154 µM); MIC (MoraXella MI): 0.03 µg/mL (≈ 0.0369 µM); MIC (H. inflenza ATCC 49247): 2 µg/mL (≈ 2.46 µM)
CCC1OC(=O)C(C)C(OC(=O)Cc2ccc(F)cc2)C(C)C(OC2OC(C)CC(N(C)Cc3cccc(O)c3)C2O)C(C)(OC)CC(C)C(=O)C(C)C(O)C1(C)O (centres unmarked) [Compound No. 17, 3-O-(4-Fluorophenyl)acetyl-5-O-[3′-N-desmethyl-3′-N-(3-hydroxy)benzyl] desosaminyl-6-O-methyl erythronolide A] | >16 | >16 | 1 | >16 | <0.5 | >16 | 1 | >16 | <0.5 | <0.5 | 1 | 8 | >16 | –
CC[C@H]1OC(=O)[C@H](C)[C@@H](O[C@H]2C[C@@](C)(OC)[C@@H](O)[C@H](C)O2)[C@H](C)[C@@H](O[C@@H]2O[C@H](C)C[C@H](N(C)C)[C@H]2O)[C@](C)(OC)C[C@@H](C)C(=O)[C@H](C)[C@@H](O)[C@]1(C)O [C, Clarithromycin, reference compound] | – | – | – | – | – | – | – | – | – | – | – | – | – | MIC (S. pneum 1256 (erm); Streptococcus pneumoniae, read-out: Minimum Inhibitory Concentrations, S. pneum 1256 (erm)): > 16 µg/mL; MIC (S. pneum 1275 (erm)): > 16 µg/mL; MIC (S. pneum 1294 (mef); Streptococcus pneumoniae, read-out: Minimum Inhibitory Concentrations, S. pneum 1294 (mef)): > 16 µg/mL; MIC (S. pneum AB 14 (erm); Streptococcus pneumoniae, read-out: Minimum Inhibitory Concentrations, S. pneum AB 14 (erm)): > 16 µg/mL; MIC (S. pneum AB 29 (erm)): > 16 µg/mL; MIC (S. pneum AB 30 (erm)): > 16 µg/mL; MIC (S. pneum 1251 (mef)): 8 µg/mL (≈ 10.7 µM); MIC (S. pneum AB 34 (mef)): > 16 µg/mL; MIC (S. pneum ATCC 49619): 0.008 µg/mL (≈ 0.0107 µM); MIC (S. pneum ATCC 6303): 0.008 µg/mL (≈ 0.0107 µM); MIC (S. pneum CS 1687 (mef)): > 16 µg/mL; MIC (MoraXella MI): 0.125 µg/mL (≈ 0.167 µM); MIC (H. inflenza ATCC 49247): 8 µg/mL (≈ 10.7 µM)
